Measured values: patent publication US20040057976A1, “Insect bait” (priority 2002, published 2004)
Values joined by “and” are separate entries in the source; they are usually repeats but may differ in a detail not shown here. Identical values can stand only once. Like-named read-outs stand apart in the source and are kept apart here.

Columns and labels:
[1] = tested on: white-footed ants; test: Two-choice, random-order preference tests on exterior walls; assay type: in vivo, Technomyrmex albipes
Experimental: Two commercial ready-to-use (RTU) ant baits and several sugar solutions were tested with and without active ingredients, including 10,000 ppm DOT (Uncle Albert's Super Smart Ant Bait®, A Safe Pest Eliminators, Inc., Miami, Fla.) and 10,000 ppm orthoboric acid (Drax Liquidator®, Waterbury Companies, Inc., Waterbury, Conn.). Sugar water solutions tested included: 100,000 ppm, 150,000 ppm, 200,000 ppm, 250,000 ppm, 350,000 ppm, 400,000 ppm, and 500,000 ppm sucrose (Publix Supermarkets, […] and 500,000 ppm fructose (Fisher Scientific, Pittsburgh, Pa.), 250,000 ppm maltose (Fisher Scientific). Four insect bait formulations of the invention (ND 1, ND2, ND3, ND4, see Table II) were also tested against sugars and commercial baits. […] Borax, Los Angeles, Calif.). Glass shell vials (6-ml capacity) with […] plastic caps (Fisher Scientific) were used for bait containers. Vials were modified for use as bait containers by drilling holes (6 mm) in the caps, inserting cotton dental wicks, which minimize bait desiccation and entrapment by ants, adding 4.5-ml solution, and using […]® (Pacer Technology, Rancho Cucamonga, Calif.) adhesive putty to hold the vials on the walls. Each test consisted of 5 bait vial pairs placed in 2 columns (FIG. 1). […] Nine counts of ants on each wick were taken approximately every 30 minutes over 4.5 hours. When the numbers of ants could not be counted visually, digital photographs were taken, and counts were taken from a computer display. Data were analyzed using t-Test and Mann-Whitney Rank Sum Tests at P=0.05.

[2] = tested on: T. Albipes adults; test: Laboratory efficacy test, second trial (non-forced bioassay, 15 treatments); assay type: in vivo, Technomyrmex albipes; conditions: means of 5 replicates
Experimental: When ant populations appeared stable, treatments were applied. No ants were added during the experiment.
Surface treatments included 1,200 ppm fipronil (Termidor®& SC), 500 ppm indoxacarb (DuPont, Wilmington, Del.), 500 ppm deltamethrin (DeltaDust®, Aventis Environmental Science), and 600 ppm lambda cyhalothrin (Demand®V CS, Syngenta Crop Protection).
Both vials had felt pads under them. Boxes with gels had the gels in weighing boats.
Mortality for the second trial was recorded for 47 days.

[3] = tested on: T. Albipes adults; conditions: first trial, non-forced bioassay, means of 5 replicates
Source text: White-footed ants were collected from a stand of Phoenix roebelenii palms at the University of Florida Fort Lauderdale Research and Education Center (Broward Co., FL). Adult ants and brood were collected from nesting sites in palm thatch between 9 a.m. and 3 p.m., when most of the foragers are in the nests. The thatch was placed in a plastic 100-liter garbage pail through a 28-cm hole cut into the center of its lid. The upper portions of the interior sides of the pail were coated with a petroleum jelly (Vaseline® London, UK) to retard the ants' escape.
Infested thatch material was taken from the garbage pail, placed in the container, covered with 1×15-cm strips of wood and a separator sheet of 3-mm polycarbonate with 2-mm holes. Dripping water from a 2-1 tank suspended over the container forced the ants to leave the thatch and enter nesting tubes (10×75 mm clear polystyrene test tubes) (Fisher Scientific, Pittsburgh, Pa.), filled at the bottom with a small cotton ball soaked with sugar water, and completely covered with aluminum foil.
Nalgene™ reusable plastic utility boxes with lids ([…]) (Fisher Scientific, Pittsburgh, Pa.) were used to hold white-footed ant colonies for laboratory tests (FIG. 4). Nesting tubes with about 200 ants and dozens of brood were placed into each box, held in place with a small amount of Handi-Tak®. Ants were provisioned with water by placing a small cotton ball moistened with approximately 2-ml deionized water in a 41×41×8 mm plastic weighing boat.
Five holes (0.86 mm ID) were drilled into the caps. Vials were filled with 4.5 ml bait solution, inverted, and attached to the sides of the boxes with Handi-Tak® (FIG. 3). Sugar water was fed ad libitum to the ants at all times and supplemented twice weekly by live termites or canned chicken for protein. A felt pad was placed under each vial to catch errant drops and prevent ants from being entrapped in their sticky residue. Ants were allowed to acclimatize in boxes for several weeks. Each day dead ants were removed and replaced with live ants. When ant populations appeared stable, treatments were applied. No ants were added during the experiment.
Fourteen treatments (5 replicates each, assigned randomly) were applied to the ants in boxes. […] The suspension of XR-007 was placed into a plastic weighing boat (0.5 g), and replaced twice a week or when it desiccated. One corner was cut away to allow for easier access by the ants.
Both vials had felt pads under them. Boxes with gels had the gels in weighing boats. The boats were on the left side of the box, and the untreated sugar water vials were on the right side. […] This was accomplished by adding 0.17-ml to panels and distributing the solution evenly with a fine paintbrush previously saturated in solution. One-half g XR-007 and indoxacarb in honey were placed into the bulb of 9.3-ml large-tip opening transfer pipettes (having had 8-cm cut back from the tip, Samco®b, San Fernando, Calif.).
Dead ants were removed and counted daily for the first week, then twice weekly thereafter. At the end of the experiment, all ants still living were killed with ethanol and counted to determine the total number of ants in each box. […] Mean percent mortalities were analyzed by ANOVA (analysis of variance) and general linear model (SAS Institute, 1989 SAS/STAT user's guide, version 6, 4th ed. SAS Institute, Cary, N.C.) and means separated using Student-Newman-Keals test at P<0.05.
Mortality for the first trial was recorded for 51 days.

[4] = test 18: 25% Sucrose vs. 25% Maltose, P=0.852
[5] = test 17: 50% Fructose vs. 50% Glucose, P=0.817
[6] = test 19: 25% Sucrose vs. 25% Glucose, P=0.463

For OC[C@H]1O[C@H](O[C@H]2[C@H](O)[C@@H](O)C(O)O[C@@H]2CO)[C@H](O)[C@@H](O)[C@@H]1O (mixture of isomers) [maltose], the “preference in binary choice test (counts of ants on wicks)” value (“preference in binary choice test” below) [1, 4] was “no significant preferences”.

In the case of O.O.O.O.O=BOB1OB(OB=O)OB2OB([O-])OB([O-])OB(O1)O2.[Na+].[Na+] [DOT, disodium octaborate tetrahydrate], the “preference in binary choice test” value ([1]; tests 24-30: 25% Sucrose vs. 25% Sucrose + 1% to 7% DOT in 1% increments, P=0.218 to 0.916) is reported as “no observed preferences”.

For COC(=O)N(C(=O)N1CO[C@@]2(C(=O)OC)Cc3cc(Cl)ccc3C2=N1)c1ccc(OC(F)(F)F)cc1 [DPX surface, indoxacarb], the “Mean % mortality (+/SD) of T. albipes adults” value (shortened to “Mean % mortality (+/SD)”) ([2]; 1 day exposure) was 2.19 ± 2.42bcd %, the “Mean % mortality (+/SD)” value ([2]; 2 days exposure) was 2.56 ± 2.51c % and the “Mean % mortality (+/SD)” value ([2]; 8 days exposure) was 5.61 ± 4.96c %. The “Mean % mortality (+/SD)” value ([2]; 29 days exposure) was 16.59 ± 12.72de % and the “Mean % mortality (+/SD)” value ([2]; 47 days exposure) was 27.87 ± 14.59e %.

In the case of N#Cc1nn(-c2c(Cl)cc(C(F)(F)F)cc2Cl)c(N)c1[S+]([O-])C(F)(F)F (stereo not drawn) [Fipronil, fipronil], the “Mean percent Mortality (+/SD) of T. Albipes adults” value (shortened to “Mean percent Mortality (+/SD)”) ([3]; 1 day exposure) is reported as 0.98 ± 0.70b %, the “Mean percent Mortality (+/SD)” value ([3]; 3 days exposure) is reported as 3.46 ± 1.38cd % and the “Mean percent Mortality (+/SD)” value ([3]; 7 days exposure) is reported as 6.76 ± 2.25e %. For the same compound, the “Mean percent Mortality (+/SD)” value ([3]; 30 days exposure) was 27.88 ± 5.89bc % and the “Mean percent Mortality (+/SD)” value ([3]; 51 days exposure) was 53.76 ± 10.84b %.

In the case of O=[N+]([O-])NC1=NCCN1Cc1ccc(Cl)nc1 [Imidacloprid], the “Mean percent Mortality (+/SD)” value ([3]; 1 day exposure) is reported as 5% and 4.92 ± 4.02ab %, the “Mean percent Mortality (+/SD)” value ([3]; 7 days exposure) is reported as 29.84 ± 10.63bc % and the “Mean percent Mortality (+/SD)” value ([3]; 7 days exposure, listed as Irnidacloprid) is reported as 30%. For the same compound, the “Mean percent Mortality (+/SD)” value ([3]; 30 days exposure) was 79% and 78.55 ± 4.83a % and the “Mean percent Mortality (+/SD)” value ([3]; 51 days exposure) was 91% and 90.86 ± 5.43a %.

With CN1COCN(Cc2cnc(Cl)s2)/C1=N\[N+](=O)[O-] [Thiamethoxam 10 ppm, Thiamethoxam] the “Mean percent Mortality (+/SD)” value ([3]; 1 day exposure) was 4% and 4.44 ± 2.26ab %, the “Mean percent Mortality (+/SD)” value ([3]; 1 day exposure, listed as Thiamethoxam 1 ppm) was 1.66 ± 1.17b % and the “Mean percent Mortality (+/SD)” value ([3]; 3 days exposure) was 18.33 ± 8.49b %. For the same compound, the “Mean percent Mortality (+/SD)” value ([3]; 3 days exposure, listed as Thiamethoxam 1 ppm) was 3.64 ± 2.80cd %, the “Mean percent Mortality (+/SD)” value ([3]; 7 days exposure) was 39% and 38.81 ± 11.13b % and the “Mean percent Mortality (+/SD)” value ([3]; 7 days exposure, listed as Thiamethoxam 1 ppm) was 6.44 ± 4.73e %. The “Mean percent Mortality (+/SD)” value ([3]; 30 days exposure) was 65% and 64.77 ± 15.51a %, the “Mean percent Mortality (+/SD)” value ([3]; 30 days exposure, listed as Thiamethoxam 1 ppm) was 19.73 ± 9.98c % and the “Mean percent Mortality (+/SD)” value ([3]; 51 days exposure) was 84% and 84.40 ± 10.09a %. The “Mean percent Mortality (+/SD)” value ([3]; 51 days exposure, listed as Thiamethoxam 1 ppm) was 44.02 ± 13.73bcd %.

With O=C(CO)[C@@H](O)[C@H](O)[C@H](O)CO [fructose] the “preference in binary choice test” value ([1]; test 2: 25% Fructose vs. 25% Maltose, P=0.033) was “preferred”, the “preference in binary choice test” value ([1]; test 14: 25% Fructose vs. Drax Liquidator (no active ingredient), P=0.580) was “no significant preferences” and the “preference in binary choice test” value ([1]; test 16: 25% Fructose vs. Uncle Albert's Super Smart Ant Bait (no active ingredient), P 0.057) was “no significant preferences”. The “preference in binary choice test” value [1, 5] was “no significant preferences”.

In the case of O=C[C@H](O)[C@@H](O)[C@H](O)[C@H](O)CO [glucose], the “preference in binary choice test” value [1, 5] is reported as “no significant preferences” and the “preference in binary choice test” value [1, 6] is reported as “no significant preferences”.

With OC[C@H]1O[C@@](CO)(O[C@H]2O[C@H](CO)[C@@H](O)[C@H](O)[C@H]2O)[C@@H](O)[C@@H]1O [sucrose] the “preference in binary choice test” value ([1]; test 1: 10% Sucrose vs. water, P<0.001) was “highly preferred”, the “preference in binary choice test” value ([1]; test 3: 25% Sucrose vs. 10% Sucrose, P<0.05) was “preferred” and the “preference in binary choice test” value ([1]; test 4: 25% Sucrose vs. 25% Fructose, P<0.001) was “preferred”. The “preference in binary choice test” value ([1]; test 5: 25% Sucrose vs. 15% Sucrose, P<0.05) was “preferred”, the “preference in binary choice test” value ([1]; test 6: 25% Sucrose vs. 20% Sucrose, P<0.05) was “preferred” and the “preference in binary choice test” value ([1]; test 7: 40% Sucrose vs. ND1, P=0.002) was “preferred”. The “preference in binary choice test” value ([1]; test 13: 25% Sucrose vs. Uncle Albert's Super Smart Ant Bait (no active ingredient), P=0.458) was “no significant preferences”, the “preference in binary choice test” value ([1]; test 15: 25% Sucrose vs. 50% Sucrose, P=0.112) was “no significant preference” and the “preference in binary choice test” value [1, 4] was “no significant preferences”. The “preference in binary choice test” value [1, 6] was “no significant preferences”.

With spinosad the “Mean percent Mortality (+/SD)” value ([3]; 1 day exposure) was 1.01 ± 0.87b %, the “Mean percent Mortality (+/SD)” value ([3]; 3 days exposure) was 2.02 ± 0.83d % and the “Mean percent Mortality (+/SD)” value ([3]; 7 days exposure) was 3.78 ± 1.85e %. For the same compound, the “Mean percent Mortality (+/SD)” value ([3]; 30 days exposure) was 16.15 ± 3.78c % and the “Mean percent Mortality (+/SD)” value ([3]; 51 days exposure) was 34.51 ± 2.42cd %.
